Target: T1, TEAD3 (Homo sapiens, UniProt Q99594)
T1 construct: with YAP peptide (amino acids 50–100)
Assay: TEAD3–YAP TR-FRET with purified protein (IC50); lipid displacement TR-FRET
Format: binding

T1 sequence (Q99594 216-435): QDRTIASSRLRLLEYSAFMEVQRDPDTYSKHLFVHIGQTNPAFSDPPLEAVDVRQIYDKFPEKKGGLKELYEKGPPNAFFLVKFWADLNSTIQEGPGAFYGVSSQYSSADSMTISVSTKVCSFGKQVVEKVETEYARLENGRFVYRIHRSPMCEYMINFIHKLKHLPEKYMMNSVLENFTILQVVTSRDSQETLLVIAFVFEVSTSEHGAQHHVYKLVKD
T1 sequence (P46937 50-100 partner): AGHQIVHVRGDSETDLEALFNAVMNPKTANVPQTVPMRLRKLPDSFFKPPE

- IC50: 1400 nM
Structure (SMILES): CCOC(=O)c1cnn2c(=O)cc(-c3ccc(C(F)(F)F)cc3)[nH]c12 [compound 1]

Reference: publication PMC10293011, “An allosteric pan-TEAD inhibitor blocks oncogenic YAP/TAZ signaling and overcomes KRAS G12C inhibitor resistance” (Nature Cancer, 2023)
